Measurements: patent US20260193249A1, “PREPARATION OF PYRAZOLOPYRIDINE AND TRIAZOLOPYRIDINE DERIVATIVES AS NOVEL DIACYLGLYCERIDE O-ACYLTRANSFERASE 2 INHIBITORS” (Merck Sharp & Dohme LLC, priority 2022, published 2026)

Biological target: T1, human DGAT2 (Homo sapiens, UniProt Q96PD7)
T1 construct: made in house; host or cells: Sf-9 insect cells (baculovirus), membrane fraction
T1 sequence (Q96PD7 1-388): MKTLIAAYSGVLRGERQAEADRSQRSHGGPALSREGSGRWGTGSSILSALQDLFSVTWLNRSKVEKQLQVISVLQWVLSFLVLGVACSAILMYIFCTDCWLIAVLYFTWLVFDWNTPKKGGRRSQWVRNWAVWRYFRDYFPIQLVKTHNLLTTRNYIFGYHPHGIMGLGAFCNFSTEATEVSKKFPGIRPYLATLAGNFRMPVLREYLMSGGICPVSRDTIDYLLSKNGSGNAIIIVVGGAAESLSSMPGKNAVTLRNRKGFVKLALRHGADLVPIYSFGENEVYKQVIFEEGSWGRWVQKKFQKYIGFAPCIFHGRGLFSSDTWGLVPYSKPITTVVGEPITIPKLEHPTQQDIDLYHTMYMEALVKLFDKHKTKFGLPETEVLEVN
Assay: DGAT2 Enzymatic Activity Assay
Format: biochemical
Details: membrane prep of Sf-9 insect cells expressing hDGAT2; 13C18-triolein product by LC/MS/MS; 25 μM diolein, 5 μM 13C oleoyl-CoA
Description: Sf-9 insect cells were maintained in Grace's insect cell culture medium with 10% heated-inactivated fetal bovine serum, 1% Pluronic F-68 and 0.14 μg/ml Kanamycine sulfate at 27° C. in a shaker incubator. After infection with untagged baculovirus expressing human DGAT2 (hDGAT2) at multiplicity of infection (MOI) 3 for 48 hours, cells were harvested. Cell pellets were suspended in buffer containing 10 mM Tris-HCl pH 7.5, 1 mM EDTA, 250 mM sucrose and Complete Protease Inhibitor Cocktail (Sigma Aldrich), and sonicated on ice. Cell debris were removed by centrifugation at 2000×g for 15 minutes. Membrane fractions were isolated by ultracentrifugation (100,000×g), resuspended in the same buffer, and frozen (−80° C.) for later use. The protein concentration was determined with the Pierce™ BCA Protein Assay Kit (Thermo Fisher Scientific).
LC/MS/MS analyses were performed using Thermal Fisher's LX4-TSQ Vantage system. This system consists of an Agilent binary high-performance liquid chromatography (HPLC) pump and a TSQ Vantage triple quadrupole MS/MS instrument. For each sample, 2 μL samples from the top organic layer of in-plate liquid-liquid extraction were injected onto a Thermo Betabasic C4 column (2.1 mm×20 mm, 5 μm particle size). The samples were then eluted using the following conditions; mobile phase: Isopropanol:acetonitrile/10 mM ammonium formate=50/35/15 (v/v/v), flow rate: 0.8 mL/min, temperature: 25° C. Data was acquired in positive mode using a heated electrospray ionization (HESI) interface. […] The peak area was integrated by Xcalibur Quan software. The ratio between the ^13C18triolein generated in the reaction and spiked in internal standard ^13C21-triolein was used to generate percentage inhibition and IC50 values. Compound percentage inhibition was calculated by the following formula: Inhibition %=1−[(compound response−low control)/(high control−low control)]×100%.
DGAT2 activity was determined by measuring the amount of enzymatic product ^13C18-triolein (^13C-1,2,3-Tri(cis-9-octadecenoyl)glycerol) using the membrane prep mentioned above. The assay was carried out in ABgene 384-well assay plates in a final volume of 25 μL at rt.

| Structure (SMILES) | IC50 [nM] |
| --- | --- |
| CC1(NC(=O)c2nn3ccc(Oc4nccnc4OCC(F)F)cc3c2F)CCS(=O)(=O)CC1 [Example 32, 5-((3-(2,2-Difluoroethoxy)pyrazin-2-yl)oxy)-3-fluoro-N-(4-methyl-1,1-dioxidotetrahydro-2H-thiopyran-4-yl)pyrazolo[1,5-a]pyridine-2-carboxamide] | 10 |
| CC1(NC(=O)c2nn3ccc(Oc4ncccc4OCC(F)(F)F)cc3c2Cl)CS(=O)(=O)C1 [Example 25, 3-Chloro-N-(3-methyl-1,1-dioxidothietan-3-yl)-5-((3-(2,2,2-trifluoroethoxy)pyridin-2-yl)oxy)pyrazolo[1,5-a]pyridine-2-carboxamide] | 30 |
| CC1(NC(=O)c2cc3cc(Oc4nccnc4OCC(F)F)ccn3n2)CCS(=O)(=O)CC1 [Example 9, 5-((3-(2,2-Difluoroethoxy)pyrazin-2-yl)oxy)-N-(4-methyl-1,1-dioxidotetrahydro-2H-thiopyran-4-yl)pyrazolo[1,5-a]pyridine-2-carboxamide] | 2.3 |
| Cc1c(C(=O)NC2(C)CS(=O)(=O)C2)nn2ccc(Oc3ncccc3OCC(F)(F)F)cc12 [Example 20, 3-Methyl-N-(3-methyl-1,1-dioxidothietan-3-yl)-5-((3-(2,2,2-trifluoroethoxy)pyridin-2-yl)oxy)pyrazolo[1,5-a]pyridine-2-carboxamide] | 171 |
| CC1(NC(=O)c2nn3ccc(Oc4ncc(F)cc4OCC(F)(F)F)cc3c2Cl)CCS(=O)(=O)CC1 [Example 34, 3-Chloro-5-((5-fluoro-3-(2,2,2-trifluoroethoxy)pyridin-2-yl)oxy)-N-(4-methyl-1,1-dioxidotetrahydro-2H-thiopyran-4-yl)pyrazolo[1,5-a]pyridine-2-carboxamide] | 7.3 |
| CC1(NC(=O)c2nn3ccc(Oc4nccnc4OCC(F)F)cc3c2F)CS(=O)(=O)C1 [Example 31, 5-((3-(2,2-Difluoroethoxy)pyrazin-2-yl)oxy)-3-fluoro-N-(3-methyl-1,1-dioxidothietan-3-yl)pyrazolo[1,5-a]pyridine-2-carboxamide] | 194 |
| CC1(NC(=O)c2cc3cc(Oc4ncc(F)cc4OCC(F)(F)F)ccn3n2)CS(=O)(=O)C1 [Example 17, 5-((5-Fluoro-3-(2,2,2-trifluoroethoxy)pyridin-2-yl)oxy)-N-(3-methyl-1,1-dioxidothietan-3-yl)pyrazolo[1,5-a]pyridine-2-carboxamide] | 72 |
| O=C(N[C@H]1CCOC1)c1cc2cc(Oc3ncccc3OCC(F)(F)F)ccn2n1 [Example 6, (S)-N-(Tetrahydrofuran-3-yl)-5-((3-(2,2,2-trifluoroethoxy)pyridin-2-yl)oxy)pyrazolo[1,5-a]pyridine-2-carboxamide] | > 9990 |
| C[C@@]1(NC(=O)c2nn3ccc(Oc4ncccc4OCC(F)(F)F)cc3c2Cl)CCS(=O)(=O)C1 [Example 26, (R)-3-Chloro-N-(3-methyl-1,1-dioxidotetrahydrothiophen-3-yl)-5-((3-(2,2,2-trifluoroethoxy)pyridin-2-yl)oxy)pyrazolo[1,5-a]pyridine-2-carboxamide] | 388 |

Second part, the molecule after the results:

| IC50 [nM] | Structure (SMILES) |
| --- | --- |
| 7.3 | CC1(NC(=O)c2nn3ccc(Oc4ncc(F)cc4OCC(F)(F)F)cc3c2F)CCS(=O)(=O)CC1 [Example 36, 3-Fluoro-5-((5-fluoro-3-(2,2,2-trifluoroethoxy)pyridin-2-yl)oxy)-N-(4-methyl-1,1-dioxidotetrahydro-2H-thiopyran-4-yl)pyrazolo[1,5-a]pyridine-2-carboxamide] |
| 7.7 | CC1(NC(=O)c2nn3ccc(Oc4ncc(Cl)cc4OCC(F)(F)F)cc3c2F)CS(=O)(=O)C1 [Example 37, 5-((5-Chloro-3-(2,2,2-trifluoroethoxy)pyridin-2-yl)oxy)-3-fluoro-N-(3-methyl-1,1-dioxidothietan-3-yl)pyrazolo[1,5-a]pyridine-2-carboxamide] |
| 1590 | CC(O)c1c(C(=O)NC2(C)CCS(=O)(=O)CC2)nn2ccc(Oc3ncccc3OCC(F)(F)F)cc12 (single isomer, unassigned) [Example 52a, 3-(1-Hydroxyethyl)-N-(4-methyl-1,1-dioxidotetrahydro-2H-thiopyran-4-yl)-5-((3-(2,2,2-trifluoroethoxy)pyridin-2-yl)oxy)pyrazolo[1,5-a]pyridine-2-carboxamide] |
| 20 | CC1(NC(=O)c2cc3cc(Oc4ncc(C#N)cc4OCC(F)(F)F)ccn3n2)CCS(=O)(=O)CC1 [Example 42, 5-((5-Cyano-3-(2,2,2-trifluoroethoxy)pyridin-2-yl)oxy)-N-(4-methyl-1,1-dioxidotetrahydro-2H-thiopyran-4-yl)pyrazolo[1,5-a]pyridine-2-carboxamide] |
| 16 | CC1(NC(=O)c2nn3ccc(Oc4ncc(F)cc4OCC(F)(F)F)cc3c2N)CCS(=O)(=O)CC1 [Example 55, 3-Amino-5-((5-fluoro-3-(2,2,2-trifluoroethoxy)pyridin-2-yl)oxy)-N-(4-methyl-1,1-dioxidotetrahydro-2H-thiopyran-4-yl)pyrazolo[1,5-a]pyridine-2-carboxamide] |
| 10 | CC1(NC(=O)c2nn3ccc(Oc4ncccc4OCC(F)(F)F)cc3c2CO)CCS(=O)(=O)CC1 [Example 50, 3-(Hydroxymethyl)-N-(4-methyl-1,1-dioxidotetrahydro-2H-thiopyran-4-yl)-5-((3-(2,2,2-trifluoroethoxy)pyridin-2-yl)oxy)pyrazolo[1,5-a]pyridine-2-carboxamide] |
| 1560 | CC1(NC(=O)c2cc3cc(Oc4ncc(C(O)C(F)(F)F)cc4OCC(F)(F)F)ccn3n2)CS(=O)(=O)C1 (single isomer, unassigned) [Example 45b, N-(3-Methyl-1,1-dioxidothietan-3-yl)-5-((5-(2,2,2-trifluoro-1-hydroxyethyl)-3-(2,2,2-trifluoroethoxy)pyridin-2-yl)oxy)pyrazolo[1,5-a]pyridine-2-carboxamide] |
| 67 | CC1(NC(=O)c2nc3cc(Oc4ncc(Cl)cc4OCC(F)(F)F)ccn3n2)CS(=O)(=O)C1 [Example 66, 7-((5-Chloro-3-(2,2,2-trifluoroethoxy)pyridin-2-yl)oxy)-N-(3-methyl-1,1-dioxidothietan-3-yl)-[1,2,4]triazolo[1,5-a]pyridine-2-carboxamide] |
| 17 | CCc1c(C(=O)NC2(C)CCS(=O)(=O)CC2)nn2ccc(Oc3ncccc3OCC(F)(F)F)cc12 [Example 46, 3-Ethyl-N-(4-methyl-1,1-dioxidotetrahydro-2H-thiopyran-4-yl)-5-((3-(2,2,2-trifluoroethoxy)pyridin-2-yl)oxy)pyrazolo[1,5-a]pyridine-2-carboxamide] |
| 973 | CC1(NC(=O)c2nn3ccc(Oc4ncccc4OCC(F)(F)F)cc3c2C(F)F)CCS(=O)(=O)CC1 [Example 49, 3-(Difluoromethyl)-N-(4-methyl-1,1-dioxidotetrahydro-2H-thiopyran-4-yl)-5-((3-(2,2,2-trifluoroethoxy)pyridin-2-yl)oxy)pyrazolo[1,5-a]pyridine-2-carboxamide] |
| 349 | CC1(NC(=O)c2nc3cc(Oc4ncc(Cl)cc4OCC(F)(F)F)ccn3n2)CCS(=O)(=O)CC1 [Example 63, 7-((5-Chloro-3-(2,2,2-trifluoroethoxy)pyridin-2-yl)oxy)-N-(4-methyl-1,1-dioxidotetrahydro-2H-thiopyran-4-yl)-[1,2,4]triazolo[1,5-a]pyridine-2-carboxamide] |
| 86 | CC1(NC(=O)c2cc3nc(Oc4ncc(Cl)cc4OCC(F)F)ccn3n2)CCS(=O)(=O)CC1 [Example 62, 5-((5-Chloro-3-(2,2-difluoroethoxy)pyridin-2-yl)oxy)-N-(4-methyl-1,1-dioxidotetrahydro-2H-thiopyran-4-yl)pyrazolo[1,5-a]pyrimidine-2-carboxamide] |
| 3.3 | CC1(NC(=O)c2cc3nc(OCc4ncc(Cl)cc4OCC(F)F)ccn3n2)CCS(=O)(=O)CC1 [Example 67, 5-((5-Chloro-3-(2,2-difluoroethoxy)pyridin-2-yl)methoxy)-N-(4-methyl-1,1-dioxidotetrahydro-2H-thiopyran-4-yl)pyrazolo[1,5-a]pyrimidine-2-carboxamide] |
